Data as given in patent US20230016424A1, “HYBRID AMIDE DERIVATIVES OF AMPHOTERICIN B” (The Board of Trustees of the University of Illinois, priority 2019, published 2023).
Values after ≈ are worked out from the molar mass of the structure shown. Where two headings read alike, the source gives them in different places.

Columns and labels:
C. tropicalis = test: MIC; assay type: cell-based
C. albicans SN250 = test: MIC; assay type: cell-based, Candida albicans
C. krusei = test: MIC; assay type: cell-based
C. albicans = test: MIC; assay type: cell-based
A. fumigatus 91 = test: MIC; assay type: cell-based
C. glabrata = test: MIC; assay type: cell-based
[1] = system: C. albicans SN250, C. albicans, C. krusei, C. glabrata, C. tropicalis, A. fumigatus 91, 1163, 1100; test: Average MIC over the tested strains; assay type: cell-based; settings: for MIC: average over the 8 listed strains; for Average MIC for AmB analogue: value of the corresponding AmB analogue, not of the C2’epi compound
A. fumigatus 1100 = test: MIC; assay type: cell-based
A. fumigatus 1163 = test: MIC; assay type: cell-based
Plasma Stability = assay type: in vitro ADME
Description: Plasma Stability: Procedure: […] Plasma was warmed to 37° C. prior to the experiment and centrifuged for 5 mins at 4000 rpm. […] Each time point was monitored in triplicate (0, 10, 30, 60 and 120 min). 4 uL/well aliquot of the working solution was mixed to the blank plasma and incubated at 37° C. AT each time point samples were quenched with ACN stop solution containing 200 ng/ml Tolbutamide & 200 ng/ml Labetalol at 1:3 ratio and mix well on shaker for 10 min then centrifuge at 4000 rpm for 15 min. A 100 ul aliquot of supernatant was mixed with 100 μL of ultra-pure and submitted for LC-MS/MS analysis.

[2] = Liver Microsome stability (In Vitro Metabolism); assay type: in vitro ADME; settings: for Remaining (T = NCF60 min): no cofactor 60 min
Description: Working Compound solution: 10 uM in 50 mM potassium phosphate buffer with 9% MeOH and 1% DMSO
Microsome solution: working concentration 0.625 mg/ml
Stopping solution: Cold ACN with 200 ng/ml Tolbutamide and 200 ng/ml Labetalol (4° C.)
Procedure: In the well plates (T5, T10, T20, T30, T60, NCF60 (no cofactor 60)) 10 uL of the compound/control working solution was added (except T0 and matric blank) followed by microsome solution (80 uL) and the mixture was incubated at 37 C for about 10 mins. A solution of potassium phosphate (10 ul of 50 mM) was added to NCF60 well, incubated at 37 C and time counting started. After prewarming 10 ul of NADPH regenerating solution was added to each plate to start the reaction. At different time point 300 uL/well of stopping solution to terminate the reaction. The sampling plates were shaken for 10 mins and the centrifuged for 20 mins at 4000 rpm. The supernatant was half diluted with ultra pure water and the analyzed using LCMS.

CC(C)CC(CO)NC(=O)C1C(O)CC2(O)CC(O)CC(O)C(O)CCC(O)CC(O)CC(=O)OC(C)C(C)C(O)C(C)C=CC=CC=CC=CC=CC=CC=CC(OC3OC(C)C(O)C(N)C3O)CC1O2 (stereo not drawn) [AE]
MIC C. tropicalis (C. tropicalis): 0.5 µM (≈ 0.512 µg/mL)
MIC C. albicans SN250 (C. albicans SN250): 1 µM (≈ 1.02 µg/mL)
MIC C. krusei (C. krusei): 1 µM (≈ 1.02 µg/mL)
MIC C. albicans (C. albicans): 0.75 µM (≈ 0.767 µg/mL)
MIC A. fumigatus 91 (A. fumigatus 91): 2 µM (≈ 2.05 µg/mL)
MIC C. glabrata (C. glabrata): 0.4 µM (≈ 0.409 µg/mL)
MIC [1]: 0.956 µM
MIC A. fumigatus 1100 (A. fumigatus 1100): 1 µM (≈ 1.02 µg/mL)
MIC A. fumigatus 1163 (A. fumigatus 1163): 1 µM (≈ 1.02 µg/mL)

CC1C=CC=CC=CC=CC=CC=CC=CC(OC2OC(C)C(O)C(N)C2O)CC2OC(O)(CC(O)CC(O)C(O)CCC(O)CC(O)CC(=O)OC(C)C(C)C1O)CC(O)C2C(=O)NC(CO)C(C)(C)C (stereo not drawn) [AF]
MIC C. tropicalis (C. tropicalis): 0.75 µM (≈ 0.767 µg/mL)
MIC C. albicans SN250 (C. albicans SN250): 0.4 µM (≈ 0.409 µg/mL)
MIC C. krusei (C. krusei): 1 µM (≈ 1.02 µg/mL)
MIC C. albicans (C. albicans): 0.5 µM (≈ 0.512 µg/mL)
MIC A. fumigatus 91 (A. fumigatus 91): 2 µM (≈ 2.05 µg/mL)
MIC C. glabrata (C. glabrata): 0.4 µM (≈ 0.409 µg/mL)
MIC [1]: 1.131 µM
MIC A. fumigatus 1100 (A. fumigatus 1100): 2 µM (≈ 2.05 µg/mL)
MIC A. fumigatus 1163 (A. fumigatus 1163): 2 µM (≈ 2.05 µg/mL)

COCCNC(=O)C1C(O)CC2(O)CC(O)CC(O)C(O)CCC(O)CC(O)CC(=O)OC(C)C(C)C(O)C(C)C=CC=CC=CC=CC=CC=CC=CC(OC3OC(C)C(O)C(N)C3O)CC1O2 (stereo not drawn) [AG]
MIC C. tropicalis (C. tropicalis): 0.4 µM (≈ 0.392 µg/mL)
MIC C. albicans SN250 (C. albicans SN250): 0.4 µM (≈ 0.392 µg/mL)
MIC C. krusei (C. krusei): 1 µM (≈ 0.981 µg/mL)
MIC C. albicans (C. albicans): 035 µM (≈ 34.3 µg/mL)
MIC A. fumigatus 91 (A. fumigatus 91): 2 µM (≈ 1.96 µg/mL)
MIC C. glabrata (C. glabrata): 0.3 µM (≈ 0.294 µg/mL)
MIC [1]: 0.806 µM
MIC A. fumigatus 1100 (A. fumigatus 1100): 1 µM (≈ 0.981 µg/mL)
MIC A. fumigatus 1163 (A. fumigatus 1163): 1 µM (≈ 0.981 µg/mL)

CC(O)CNC(=O)C1C(O)CC2(O)CC(O)CC(O)C(O)CCC(O)CC(O)CC(=O)OC(C)C(C)C(O)C(C)C=CC=CC=CC=CC=CC=CC=CC(OC3OC(C)C(O)C(N)C3O)CC1O2 (stereo not drawn) [AH]
MIC C. tropicalis (C. tropicalis): 0.45 µM (≈ 0.442 µg/mL)
MIC C. albicans SN250 (C. albicans SN250): 0.35 µM (≈ 0.343 µg/mL)
MIC C. krusei (C. krusei): 0.75 µM (≈ 0.736 µg/mL)
MIC C. albicans (C. albicans): 0.35 µM (≈ 0.343 µg/mL)
MIC A. fumigatus 91 (A. fumigatus 91): 2 µM (≈ 1.96 µg/mL)
MIC C. glabrata (C. glabrata): 0.2 µM (≈ 0.196 µg/mL)
MIC [1]: 0.763 µM
MIC A. fumigatus 1100 (A. fumigatus 1100): 1 µM (≈ 0.981 µg/mL)
MIC A. fumigatus 1163 (A. fumigatus 1163): 1 µM (≈ 0.981 µg/mL)

CC1C=CC=CC=CC=CC=CC=CC=CC(OC2OC(C)C(O)C(N)C2O)CC2OC(O)(CC(O)CC(O)C(O)CCC(O)CC(O)CC(=O)OC(C)C(C)C1O)CC(O)C2C(=O)NCC(C)(C)O (stereo not drawn) [AI]
MIC C. tropicalis (C. tropicalis): 0.45 µM (≈ 0.448 µg/mL)
MIC C. albicans SN250 (C. albicans SN250): 0.3 µM (≈ 0.299 µg/mL)
MIC C. krusei (C. krusei): 1 µM (≈ 0.995 µg/mL)
MIC C. albicans (C. albicans): 0.4 µM (≈ 0.398 µg/mL)
MIC A. fumigatus 91 (A. fumigatus 91): 1 µM (≈ 0.995 µg/mL)
MIC C. glabrata (C. glabrata): 0.25 µM (≈ 0.249 µg/mL)
MIC [1]: 0.675 µM
MIC A. fumigatus 1100 (A. fumigatus 1100): 1 µM (≈ 0.995 µg/mL)
MIC A. fumigatus 1163 (A. fumigatus 1163): 1 µM (≈ 0.995 µg/mL)

CC1C=CC=CC=CC=CC=CC=CC=CC(OC2OC(C)C(O)C(N)C2O)CC2OC(O)(CC(O)CC(O)C(O)CCC(O)CC(O)CC(=O)OC(C)C(C)C1O)CC(O)C2C(=O)NCC(O)CO (stereo not drawn) [AK]
MIC C. tropicalis (C. tropicalis): 0.3 µM (≈ 0.299 µg/mL)
MIC C. albicans SN250 (C. albicans SN250): 0.15 µM (≈ 0.15 µg/mL)
MIC C. krusei (C. krusei): 0.4 µM (≈ 0.399 µg/mL)
MIC C. albicans (C. albicans): 0.25 µM (≈ 0.249 µg/mL)
MIC A. fumigatus 91 (A. fumigatus 91): 1 µM (≈ 0.997 µg/mL)
MIC C. glabrata (C. glabrata): 0.1 µM (≈ 0.0997 µg/mL)
MIC [1]: 0.431 µM
MIC A. fumigatus 1100 (A. fumigatus 1100): 0.75 µM (≈ 0.748 µg/mL)
MIC A. fumigatus 1163 (A. fumigatus 1163): 0.5 µM (≈ 0.499 µg/mL)

CC1C=CC=CC=CC=CC=CC=CC=CC(OC2OC(C)C(O)C(N)C2O)CC2OC(O)(CC(O)CC(O)C(O)CCC(O)CC(O)CC(=O)OC(C)C(C)C1O)CC(O)C2C(=O)NC1CC1 (stereo not drawn) [BD]
MIC C. tropicalis (C. tropicalis): 0.5 µM (≈ 0.482 µg/mL)
MIC C. albicans SN250 (C. albicans SN250): 0.5 µM (≈ 0.482 µg/mL)
MIC C. krusei (C. krusei): 4 µM (≈ 3.85 µg/mL)
MIC C. albicans (C. albicans): 1 µM (≈ 0.963 µg/mL)
MIC A. fumigatus 91 (A. fumigatus 91): 8 µM (≈ 7.71 µg/mL)
MIC C. glabrata (C. glabrata): 0.5 µM (≈ 0.482 µg/mL)
MIC [1]: 3.063 µM
Average MIC for AmB analogue [1]: 0.500 μM
MIC A. fumigatus 1100 (A. fumigatus 1100): 4 µM (≈ 3.85 µg/mL)
MIC A. fumigatus 1163 (A. fumigatus 1163): 6 µM (≈ 5.78 µg/mL)

CC1C=CC=CC=CC=CC=CC=CC=CC(OC2OC(C)C(O)C(N)C2O)CC2OC(O)(CC(O)CC(O)C(O)CCC(O)CC(O)CC(=O)OC(C)C(C)C1O)CC(O)C2C(=O)NC1CCC1 (stereo not drawn) [BE]
MIC C. tropicalis (C. tropicalis): 1 µM (≈ 0.977 µg/mL)
MIC C. albicans SN250 (C. albicans SN250): 1 µM (≈ 0.977 µg/mL)
MIC C. krusei (C. krusei): 4 µM (≈ 3.91 µg/mL)
MIC C. albicans (C. albicans): 2 µM (≈ 1.95 µg/mL)
MIC A. fumigatus 91 (A. fumigatus 91): 8 µM (≈ 7.82 µg/mL)
MIC C. glabrata (C. glabrata): 0.5 µM (≈ 0.489 µg/mL)
MIC [1]: 3.563 µM
Average MIC for AmB analogue [1]: 1.281 μM
MIC A. fumigatus 1100 (A. fumigatus 1100): 4 µM (≈ 3.91 µg/mL)
MIC A. fumigatus 1163 (A. fumigatus 1163): 8 µM (≈ 7.82 µg/mL)

CC1C=CC=CC=CC=CC=CC=CC=CC(OC2OC(C)C(O)C(N)C2O)CC2OC(O)(CC(O)CC(O)C(O)CCC(O)CC(O)CC(=O)OC(C)C(C)C1O)CC(O)C2C(=O)NCCO (stereo not drawn) [Compound AA]
MIC C. tropicalis (C. tropicalis): 0.225 µM (≈ 0.218 µg/mL)
MIC C. tropicalis (C. tropicalis; listed as AmBHEA): 0.225 µM (≈ 0.218 µg/mL)
MIC C. albicans SN250 (C. albicans SN250): 0.25 µM (≈ 0.242 µg/mL)
MIC C. krusei (C. krusei): 0.45 µM (≈ 0.435 µg/mL)
MIC C. krusei (C. krusei; listed as AmBHEA): 0.45 µM (≈ 0.435 µg/mL)
MIC C. albicans (C. albicans): 0.225 µM (≈ 0.218 µg/mL)
MIC C. albicans (C. albicans; listed as AmBHEA): 0.225 µM (≈ 0.218 µg/mL)
% Remaining at 120 min (Plasma Stability; Human Plasma): 119%
Half Life (Plasma Stability; Human Plasma): >4.82 h
% Remaining at 120 min (Plasma Stability; Rat Plasma): 108%
Half Life (Plasma Stability; Rat Plasma): >4.82 h
CL ([2]; Dog liver microsomes): <9.6 µL/min/mg
CLint ([2]; Dog liver microsomes): <14 mL/min/kg
Remaining (T = 60 min) ([2]; Dog liver microsomes): 88.5%
T1/2 ([2]; Dog liver microsomes): >2.42 h
Remaining (T = NCF60 min) ([2]; Dog liver microsomes): 97.4%
CL ([2]; Human liver microsomes): <9.6 µL/min/mg
CLint ([2]; Human liver microsomes): <8.6 mL/min/kg
Remaining (T = 60 min) ([2]; Human liver microsomes): 111%
T1/2 ([2]; Human liver microsomes): >2.42 h
Remaining (T = NCF60 min) ([2]; Human liver microsomes): 142%
CL ([2]; Monkey liver microsomes): <9.6 µL/min/mg
CLint ([2]; Monkey liver microsomes): <13 mL/min/kg
Remaining (T = 60 min) ([2]; Monkey liver microsomes): 113%
T1/2 ([2]; Monkey liver microsomes): >2.42 h
Remaining (T = NCF60 min) ([2]; Monkey liver microsomes): 103%
CL ([2]; Mouse liver microsomes): <9.6 µL/min/mg
CLint ([2]; Mouse liver microsomes): <38 mL/min/kg
Remaining (T = 60 min) ([2]; Mouse liver microsomes): 118%
T1/2 ([2]; Mouse liver microsomes): >2.42 h
Remaining (T = NCF60 min) ([2]; Mouse liver microsomes): 140%
CL ([2]; Rat liver microsomes): <9.6 µL/min/mg
CLint ([2]; Rat liver microsomes): <17 mL/min/kg
Remaining (T = 60 min) ([2]; Rat liver microsomes): 130%
T1/2 ([2]; Rat liver microsomes): >2.42 h
Remaining (T = NCF60 min) ([2]; Rat liver microsomes): 113%
MIC A. fumigatus 91 (A. fumigatus 91): 1 µM (≈ 0.967 µg/mL)
MIC A. fumigatus 91 (A. fumigatus 91; listed as AmBHEA): 1 µM (≈ 0.967 µg/mL)
MIC C. glabrata (C. glabrata): 0.145 µM (≈ 0.14 µg/mL)
MIC C. glabrata (C. glabrata; listed as AmBHEA): 0.145 µM (≈ 0.14 µg/mL)
MIC [1]: 0.44 µM
MIC ([1]; listed as AmBHEA): 0.44 µM
MIC A. fumigatus 1100 (A. fumigatus 1100): 0.7 µM (≈ 0.677 µg/mL)
MIC A. fumigatus 1100 (A. fumigatus 1100; listed as AmBHEA): 0.7 µM (≈ 0.677 µg/mL)
MIC A. fumigatus 1163 (A. fumigatus 1163): 0.525 µM (≈ 0.508 µg/mL)
MIC A. fumigatus 1163 (A. fumigatus 1163; listed as AmBHEA): 0.525 µM (≈ 0.508 µg/mL)
